Assay results as given in PubChem BioAssay AID2060498 (Molecular Pharmacology Branch, DTP, NCI, 2025).
Values joined by “and” are separate entries in the source; they are usually repeats but may differ in a detail not shown here. Equal entries are not always repeated.

Tested on: 171881-019-R-J1-PDC tumor spheroids, viability
Assay: Anticancer human tumor 171881-019-R-J1-PDC patient-derived invasive breast carcinoma cell line growth inhibition [GQUAD]
Conditions: spheroids with HUVEC and MSC; for viability, T/C: stronger effect = lower value
Text: DNA G-quadruplex Stabilizer Agents in Combinations in Complex Spheroids
A high-throughput screen of multi-cell type tumor spheroids was designed to identify active combinations of DNA G-quadruplex stabilizer agents and targeted small molecules. Complex spheroids include a stromal component modeled by human endothelial cells (HUVEC) and fibroblasts modeled by human mesenchymal stem cells (MSCs). The concentration ranges selected for each drug and investigational agent were based upon clinically achievable concentrations if the clinical Cmax of the agent was known.
Compounds. The drugs and investigational agents: pidnarulex (CX-5461; NSC782164), APTO-253 (NSC789042), BRACO-19 (NSC847499), peposertib (NSC802822), ceralasertib (NSC780249), elimusertib (NSC800525), camonsertib (NSC841442), AZD-1390 (NSC803789), olaparib (NSC753686), talazoparib (NSC767125), ART-558 (NSC835418), sotorasib (NSC818433), MRTX-1133 (NSC836407), SN-38 (NSC673596), topotecan (NSC609699), etoposide (NSC141540), doxorubicin (NSC123127), gemcitabine (NSC613327), 5-fluorouracil (NSC19893), paclitaxel (NSC125973), vemurafenib (NSC761431), panobinostat (NSC761190), R-306465 (JNJ-16241199; NSC773264), adavosertib (NSC754352), TP-3654 (NSC805149), carboplatin (NSC241240), KSQ-4279 (NSC840948), and staurosporine (NSC755774) were obtained from the National Cancer Institute (NCI) Developmental Therapeutics Program Chemical Repository (34). The FDA-approved anticancer drug set is available from the NCI Developmental Therapeutics Program. […] The stock solutions were prepared in dimethyl sulfoxide (DMSO, Sigma-Aldrich, St. Louis, MO, cat. D2650) at 800-fold the tested concentration and stored at -70 degrees C prior to their use. All drugs and investigational agents were tested over a range starting from a high concentration at or near the clinical Cmax and decreasing in half-log increments. If the clinical Cmax for an agent had not been determined, the highest concentration tested was 10 microM.
2.3 Cell Culture. All cells were maintained in an incubator at 37 degrees C and 5% CO2 with 95% humidity. The PDC lines were cultured according to standard operating procedures established by the NCI PDMR. All PDCs were thawed and cultured in Matrigel-coated flasks prepared with a working solution of 1X Ham's F-12 nutrient mix, without supplementation (Invitrogen, cat. 11765054), 100 U/mL penicillin-streptomycin (Invitrogen, cat. 15140122), and 2.5% Matrigel (Corning Inc., cat. 354248) for the first three passages. The 857933-349-R-J2-PDC line was cultured in 6C/Colon 1B media, which includes advanced DMEM/F-12 (Thermo Fisher Scientific, cat. 12634028), 10 mM HEPES (Thermo Fisher Scientific, cat. 15630080), 1X GlutaMAX supplement (Thermo Fisher Scientific, cat. 35050061), 0.1 mg/mL primocin (InvivoGen, cat. ant-pm-2), 10% defined fetal bovine serum, heat inactivated (HyClone Laboratories Inc., cat. SH30070.03HI), 50% L-WRN conditioned media (ATCC, cat. CRL-3276), 1.25 mM N-Acetyl-L-cysteine (Sigma-Aldrich, cat. A9165), 10 mM nicotinamide (Sigma-Aldrich, cat. N0636), 1X B-27 supplement (Thermo Fisher Scientific, cat. 17504044), 1X N-2 supplement (Thermo Fisher Scientific, cat. 17502048), 10 microM Y-27632 dihydrochloride (Tocris Bioscience, cat. 1254), and 50 ng/mL human EGF recombinant protein (Thermo Fisher Scientific, cat. PHG0311). The 485176-168-R4-J1-PDC line was cultured in Panc media, which includes all 6C/Colon 1B media components plus 100 ng/mL human FGF-10 (Thermo Fisher Scientific, cat. 100-26), 500 nM SB-431542 (Selleckchem, cat. S1067), and gastrin (Tocris, cat. 3006).
[…]
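Also: spheroids exposed to compounds for 7 days.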
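For viability, T/C in this document: 100% = DMSO vehicle control viability.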

In the case of `CC(=O)O[C@H]1C(=O)[C@@]2(C)[C@H]([C@H](OC(=O)c3ccccc3)[C@]3(O)C[C@H](OC(=O)[C@H](O)[C@@H](NC(=O)c4ccccc4)c4ccccc4)C(C)=C1C3(C)C)[C@]1(OC(C)=O)CO[C@@H]1C[C@@H]2O` + CN(C)c1ccc(Nc2c3ccc(NC(=O)CCN4CCCC4)cc3nc3cc(NC(=O)CCN4CCCC4)ccc23)cc1, the IC50 (curve of first compound, second compound 0.0316 µM) is reported as < 31.6 nM, the IC50 (curve of first compound, second compound 0.1 µM) is reported as < 31.6 nM and the IC50 (curve of first compound, second compound 0.316 µM) is reported as < 31.6 nM. The IC50 (curve of first compound, second compound 1 µM) was < 31.6 nM, the IC50 (curve of first compound, second compound 3.16 µM) was < 31.6 nM and the IC50 (curve of first compound, second compound 10 µM) was < 31.6 nM. It also gave a viability, T/C (second compound 0.0316 µM, first compound 0.0316 µM) of 43.1%, a viability, T/C (second compound 0.0316 µM, first compound 0.1 µM) of 29.6% and a viability, T/C (second compound 0.0316 µM, first compound 0.316 µM) of 29.1%. It also gave a viability, T/C (second compound 0.0316 µM, first compound 1 µM) of 25.7%, a viability, T/C (second compound 0.0316 µM, first compound 3.16 µM) of 27.4% and a viability, T/C (second compound 0.0316 µM, first compound 10 µM) of 26.6%. It also gave a viability, T/C (second compound 0.1 µM, first compound 0.0316 µM) of 44.7%, a viability, T/C (second compound 0.1 µM, first compound 0.1 µM) of 32.1% and a viability, T/C (second compound 0.1 µM, first compound 0.316 µM) of 26.8%. For the same compound, the viability, T/C (second compound 0.1 µM, first compound 1 µM) was 28.4%, the viability, T/C (second compound 0.1 µM, first compound 3.16 µM) was 26.4% and the viability, T/C (second compound 0.1 µM, first compound 10 µM) was 25.6%. The viability, T/C (second compound 0.316 µM, first compound 0.0316 µM) was 25.1%, the viability, T/C (second compound 0.316 µM, first compound 0.1 µM) was 22.9% and the viability, T/C (second compound 0.316 µM, first compound 0.316 µM) was 20.6%. For the same compound, the viability, T/C (second compound 0.316 µM, first compound 1 µM) was 14.4%, the viability, T/C (second compound 0.316 µM, first compound 3.16 µM) was 19.6% and the viability, T/C (second compound 0.316 µM, first compound 10 µM) was 15.7%. It also gave a viability, T/C (second compound 1 µM, first compound 0.0316 µM) of 3.67%, a viability, T/C (second compound 1 µM, first compound 0.1 µM) of 2.91% and a viability, T/C (second compound 1 µM, first compound 0.316 µM) of 3.17%. The viability, T/C (second compound 1 µM, first compound 1 µM) was 2.09%, the viability, T/C (second compound 1 µM, first compound 3.16 µM) was 2.08% and the viability, T/C (second compound 1 µM, first compound 10 µM) was 2.43%. It also gave a viability, T/C (second compound 3.16 µM, first compound 0.0316 µM) of 0.23%, a viability, T/C (second compound 3.16 µM, first compound 0.1 µM) of 0.45% and a viability, T/C (second compound 3.16 µM, first compound 0.316 µM) of 0.18%. The viability, T/C (second compound 3.16 µM, first compound 1 µM) was 0.19%, the viability, T/C (second compound 3.16 µM, first compound 3.16 µM) was 0.24% and the viability, T/C (second compound 3.16 µM, first compound 10 µM) was 0.32%. It also gave a viability, T/C (second compound 10 µM, first compound 0.0316 µM) of 0.1%, a viability, T/C (second compound 10 µM, first compound 0.1 µM) of 0.18% and a viability, T/C (second compound 10 µM, first compound 0.316 µM) of 0.1%. It also gave a viability, T/C (second compound 10 µM, first compound 1 µM) of 0.11%, a viability, T/C (second compound 10 µM, first compound 3.16 µM) of 0.27% and a viability, T/C (second compound 10 µM, first compound 10 µM) of 0.19%.
In the case of `Cc1[nH]c2ccccc2c1CCNCc1ccc(/C=C/C(=O)NO)cc1`, the viability, T/C (compound 0.000999 µM) is reported as 93.1% and 97% and 99.3%, the viability, T/C (compound 0.00316 µM) is reported as 90.7% and 88% and 95.2% and the viability, T/C (compound 0.00999 µM) is reported as 91.3% and 87.6% and 84.2%. For the same compound, the viability, T/C (compound 0.0316 µM) was 83.3% and 83.6% and 75.6%, the viability, T/C (compound 0.0999 µM) was 21.4% and 22.6% and 29% and the viability, T/C (compound 0.316 µM) was 0.4% and 0.47% and 1.04%. For the same compound, the IC50 (curve of compound) was 58.7 nM and 59.5 nM and 58.2 nM.
In the case of `Cn1ncnc1[C@H]1c2n[nH]c(=O)c3cc(F)cc(c23)N[C@@H]1c1ccc(F)cc1`, the viability, T/C (compound 0.000999 µM) is reported as 108% and 102% and 105%, the viability, T/C (compound 0.00316 µM) is reported as 94.8% and 103% and 86.1% and the viability, T/C (compound 0.00999 µM) is reported as 95% and 95.7% and 88.2%. The viability, T/C (compound 0.0316 µM) was 86.3% and 102% and 97.5%, the viability, T/C (compound 0.0999 µM) was 88.8% and 91.6% and 81.5% and the viability, T/C (compound 0.316 µM) was 94.1% and 80.5% and 73.1%. For the same compound, the IC50 (curve of compound) was > 316 nM.
`O=c1[nH]cc(F)c(=O)[nH]1` was tested, and the viability, T/C (compound 0.0316 µM) was 82.5% and 74.1% and 82.2%, the viability, T/C (compound 0.1 µM) was 61.5% and 60.6% and 75.6% and the viability, T/C (compound 0.316 µM) was 61.1% and 61.8% and 73.7%. For the same compound, the viability, T/C (compound 1 µM) was 57.7% and 55.4% and 66.4%, the viability, T/C (compound 3.16 µM) was 51.6% and 51.2% and 63.5% and the viability, T/C (compound 10 µM) was 52.5% and 54.1% and 66.9%. The IC50 (curve of compound) was > 10000 nM.
For `CCc1c2c(nc3ccc(O)cc13)-c1cc3c(c(=O)n1C2)COC(=O)[C@]3(O)CC`, the viability, T/C (compound 0.000999 µM) was 77.2% and 89.1% and 77.4%, the viability, T/C (compound 0.00316 µM) was 38.9% and 53.4% and 39.7% and the viability, T/C (compound 0.00999 µM) was 37.3% and 53.9% and 33%. For the same compound, the viability, T/C (compound 0.0316 µM) was 32% and 42.5% and 33.4%, the viability, T/C (compound 0.0999 µM) was 27.4% and 34.3% and 26% and the viability, T/C (compound 0.316 µM) was 23.4% and 26.1% and 21.4%. The IC50 (curve of compound) was 2.46 nM and 8.66 nM and 2.44 nM.
